Legend:
[1] = target: T1, OGFOD1 (hsOGFOD1_FL) (Homo sapiens, UniProt Q8N543); assay: Thermal stability shift assay (SYPRO Orange); type: binding; details: change in apparent protein melting temperature; compound 20 μM, 1 μM hsOGFOD1_FL, 50 μM MnCl2
T1 construct: His6 tag (N-terminal pET-28a leader); made in house; host or cells: E. coli BL21(DE3)
T1 sequence (Q8N543 1-542): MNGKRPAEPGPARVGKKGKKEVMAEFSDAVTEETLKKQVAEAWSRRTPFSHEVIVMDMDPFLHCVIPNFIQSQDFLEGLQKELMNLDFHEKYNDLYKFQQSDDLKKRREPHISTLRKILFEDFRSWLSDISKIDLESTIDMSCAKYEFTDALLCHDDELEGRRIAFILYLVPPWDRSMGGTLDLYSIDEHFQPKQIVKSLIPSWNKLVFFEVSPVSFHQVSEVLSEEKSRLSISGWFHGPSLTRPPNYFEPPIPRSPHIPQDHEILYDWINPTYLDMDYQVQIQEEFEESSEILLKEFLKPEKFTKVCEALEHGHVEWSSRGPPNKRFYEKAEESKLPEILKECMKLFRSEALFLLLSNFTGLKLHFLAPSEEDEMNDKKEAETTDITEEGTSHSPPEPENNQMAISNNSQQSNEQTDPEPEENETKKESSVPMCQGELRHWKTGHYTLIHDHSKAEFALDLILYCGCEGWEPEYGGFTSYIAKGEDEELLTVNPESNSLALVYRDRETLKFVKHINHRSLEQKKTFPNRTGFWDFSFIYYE
Method: Assays were conducted in 50 mM HEPES buffer, 150 mM NaCl, pH 7.5. A stock solution of MnCl2 (500 mM) in 20 mM HCl was prepared, and diluted to 5 mM with water. A master mix containing 2.085 mL buffer, 21 μL MnCl2 (5 mM, 50 μM final), 21 μL hsOGFOD1_FL (100 μM, 1 μM final), and 2.1 μL SYPRO Orange dye was prepared. The screen was conducted using stock solutions of compounds (400 μIM in DMSO) at a final concentration of 20 μM, by mixing 1 μL compound stock solution with 19 μL assay master mix. Incubations were performed in a white 96-well RT-PCR plate and subjected to thermal cycling as per an established protocol. Data was analysed in Microsoft Excel and GraphPad Prism.
The effect of small molecules on the stability of proteins to thermal denaturation was assessed by the change in apparent protein melting temperature, defined as the temperature at which equal amounts of folded and unfolded protein exist in solution. Unfolding was quantified by measurement of the fluorescence increase of SYPRO® Orange dye (Invitrogen) upon binding to hydrophobic residues that are exposed during unfolding. Approximately 400 small-molecule compounds were tested at a final concentration of 20 μM. Stabilization data for selected compounds are shown in below. Structures of the compounds are set out below.

[2] = target: T2, OGFOD1 (Homo sapiens, UniProt Q8N543); assay: MALDI-based hydroxylation assay, inhibitor screen; type: biochemical; details: general statement in the description, no conditions given
T2 construct: His6 tag (N-terminal pET-28a leader); made in house; host or cells: E. coli BL21(DE3)
T2 sequence (Q8N543 1-542): T1 sequence (Q8N543 1-542)
Method: A library of 150 compounds comprising known and potential inhibitors of 2OG oxygenases was screened against OGFOD1 by a MALDI-based hydroxylation assay. Single-point measurements were conducted in duplicate, using 4 μM OGFOD1 at 100 μM final compound concentration in the presence of excess (300 μM) 2OG, with incubation at 37° C. for 30 min.

[3] = target: T3, full-length OGFOD1 (Homo sapiens, UniProt Q8N543); assay: 2OG turnover assay; type: biochemical; details: 1 mM inhibitor, 37° C., 20 min
T3 construct: His6 tag (N-terminal pET-28a leader); made in house; host or cells: E. coli BL21(DE3)
T3 sequence (Q8N543 1-542): T1 sequence (Q8N543 1-542)
Method: Values shown are averages of two or three experiments. Error bars represent standard deviations. The assay was carried out for 20 min at 37° C. using 8 μM recombinant full-length human OGFOD1 (SEQ ID NO:1), 288 μM 2OG, 3.7 μM 1-[^14C]-2OG (specific activity […], stock concentration 1.83 mM), RPS23 peptide, 100 μM (NH4)2Fe(SO4)2, 4 mM ascorbate, 0.66 mg/ml catalase, 1 mM DTT, 50 mM Tris.HCl pH 7.5, and with one of OGFOD1, (NH4)2Fe(SO4)2 and ascorbate missing from the assay. The assay was also performed in the presence of 1 mM pyridine 2,4-dicarboxylic acid (2,4-PDCA).
Constructs of OGFOD1 encoding full-length protein or its C-terminal domain were tested for enzymatic activity using a 2OG turnover assay (Kivirikko and Myllyla (1982) Methods in Enzymology 82: […]). […]
These were diluted to a total volume of 100 μl with 50 mM Tris-Cl buffer, pH 7.5. […] The Eppendorf tubes containing the hyamine hydroxide were transferred to scintillation vials, mixed with 5 mL OptiPhase Liquid Scintillation Cocktail (Fisher Scientific) and total ^14C counts quantified using a Beckman LS6500 Multi-Purpose Scintillation Counter. Conversion of 2OG was calculated from the percentage of 1-[^14C]-2OG that had been converted into gaseous ^14CO2. […]

[4] = target: T2, OGFOD1; assay: OGFOD1-mediated hydroxylation of RPS23 20mer peptide with generic 2OG oxygenase inhibitors; type: biochemical; details: 1 mM inhibitor
Method: OGFOD1-mediated hydroxylation of the initially identified 20mer peptide sequence of human RPS23 was strictly dependent on presence of 2OG and Fe(II), and hydroxylation was reduced in presence of 1 mM of generic 2OG oxygenase inhibitors such as N-oxalyl glycine (NOG), pyridine 2,4-dicarboxylic acid (2,4-PDCA) and transition metal ions such as Co^II.

[5] = target: T2, OGFOD1; assay: MALDI assay of OGFOD1 specificity towards RPS23 and RPS23-like peptides; type: biochemical; details: peptide as substrate; 4 μM OGFOD1/100 μM peptide, 37° C., 30 min; symbols not defined
Method: To investigate the specificity of OGFOD1 towards variations in the sequence and length, multiple corresponding to RPS23 and RPS23-like sequences were synthesized and tested. MALDI assays were performed using a 1:25 protein:peptide (4 μM/100 μM) ratio, with incubation at 37° C. for 30 min.
Mutation of prolyl to alanine or isoleucine residues completely abolished hydroxylation, providing further evidence for OGFOD1 acting as a prolyl hydroxylase. […] This observation is consistent with the high evolutionary conservation of the amino acids following, but not of those preceding the prolyl (Pro-62) residue in RPS23.

Row | Compound | Stabilization (° C.) [1] | further results
1 | O=C(O)CCC(=O)Nc1cc2ccccc2cn1 [Compound 1] | +8.4 °C | –
2 | O=C(O)CCC(=O)NNC(=O)c1ccc2ccccc2c1 [Compound 2] | +7.1 °C | –
3 | O=C(O)CCC(=O)NNS(=O)(=O)c1ccccc1 [Compound 3] | +7.1 °C | –
4 | O=C(O)CNC(=O)c1nc(Cl)c2ccccc2c1O [Compound 4, 2-(1-Chloro-4-hydroxyisoquinoline-3-carboxamido)acetic acid] | +7.0 °C | inhibition of OGFOD1 prolyl hydroxylase activity [2]: inhibit OGFOD1; inhibition of OGFOD1 prolyl hydroxylase activity ([2]; listed as FG2216): inhibitory
5 | O=C(O)c1ccnc(-c2cc(C(=O)O)ccn2)c1 [Compound 5] | +7.5 °C | –
6 | O=C(O)CCC(=O)Nc1ccc(Br)cn1 [Compound 6] | +7.0 °C | –
7 | N#Cc1ccc2c(=O)c(C(=O)O)c[nH]c2c1 [Compound 7] | +7.5 °C | –
8 | CCC(=O)C1C(=O)CC(C(=O)O)CC1=O (centres unmarked) [Compound 8, Prohexadione] | +6.9 °C | –
9 | CC(NC(=O)C(=O)O)C(=O)O (centres unmarked) [Compound 9] | +6.3 °C | –
10 | O=C(O)CCNC(=O)c1nc2ccccc2cc1O [Compound 10] | +7.2 °C | –
11 | O=C(O)c1ccnc(C(=O)O)c1 [Compound 11, Pyridine 2,4-dicarboxylic acid] | +6.7 °C | inhibition of OGFOD1 prolyl hydroxylase activity [2]: inhibitory; OGFOD1-catalyzed 2OG turnover [3]: inhibited; hydroxylation of RPS23 20mer peptide [4]: reduced
12 | O=C(O)CNC(=O)C(=O)O [N-oxalylglycine] | – | inhibition of OGFOD1 prolyl hydroxylase activity [2]: inhibitory; hydroxylation of RPS23 20mer peptide [4]: reduced
13 | O=C(O)c1cc(O)c(O)c(O)c1 [gallic acid] | – | inhibition of OGFOD1 prolyl hydroxylase activity [2]: inhibitory
14 | CODD: PHD2 C-terminal oxygen-dependent degradation domain (CODD) substrate of HIF-1α | – | Hydroxylation [5]: No hydroxylation
